Test [1] has as its system release of TNFα (THP-1 cells). The test is described as follows: inhibition of the release of TNFα in THP-1 cells stimulated with PMA and polyinosic acid (ELISA). The note with it: Homo sapiens, PMA 2 μg/ml and polyinosic acid 200 μg/ml, 24 hours, read-out: IC50 (concentration to inhibit 50% the TNFα release). Type of test: cell-based. The procedure:
Compound 1, the present diphenyl disulfide compound obtained in Example 1, was evaluated for the activity to inhibit the release of TNFα, in accordance with the following method.
(§1) The THP-1 cells derived from human peripheral blood (ATCC TIB202) were suspended in RPMI 1640 medium (available from Bio-Whittaker Co., Ltd.) containing 10% (v/v) of fetal bovine serum, 2 mM of glutamine, 50 μM of 2-mercaptoethanol, 60 μg/ml of penicillin and 100 μg/ml of streptomycin.
The suspension of THP-1 cell was subcultured at 37° C. under the atmosphere of 95% […] and 5% carbon dioxide. A portion of the subcultured suspension was centrifuged at 1200 rpm at room temperature for 3 minutes to recover the subcultured THP-1 cells.
(§2) The resulting THP-1 cells were resuspended in RPMI 1640 medium containing 2% (v/v) of fetal bovine serum, 2 mM of glutamine, 50 μM of 2-mercaptoethanol, 60 μg/ml of penicillin and 100 μg/ml of streptomycin so as to provide a final THP-1 cell concentration of 3×10^6 cells/ml.
The resuspension of the cell was dispensed in 0.5 ml portions to wells of a 24-well plate for cell culture, and incubated at 37° C. for one hour. Each solution of the present Compound 1 dissolved in DMSO at the respective specified concentrations was added in 2.5 μl portions to each well. The plate was incubated at 37° C. under the atmosphere of 95% […] and 5% carbon dioxide for one hour. […]
A general note: ELISA stands for enzyme-linked immunosorbent assay.

In test [2] the test system is production of IL-1β (THP-1 cells). The test is described as follows: inhibition of the production of IL-1β in THP-1 cells stimulated with PMA and polyinosic acid (enzyme immunoassay). Type of test: cell-based. The note with it: Homo sapiens, PMA 2 μg/ml and polyinosic acid, 24 hours, read-out: IC50 (concentration to inhibit 50% the IL-1β production). The procedure:
Compounds 1-3, the present diphenyl disulfide compounds obtained in Examples 1 and 2, were evaluated for the activity to inhibit the production of IL-1β, in accordance with the following method.
as §1
The suspension of the THP-1 cell was subcultured at 37° C. under the atmosphere of […] and 5% carbon dioxide. A portion of the subcultured suspension was centrifuged at 1200 rpm at room temperature for 3 minutes to recover the subcultured THP-1 cells.
as §2
The resuspension of the cell was dispensed in 0.5 ml portions to wells of a 24-well plate for cell culture. Then, each solution of the present Compounds 1-3 dissolved in DMSO at the respective specified concentrations was added in 2.5 μl portions to each well. The plate was incubated at 37° C. under the atmosphere of 95% […] and 5% carbon dioxide for one hour. Then, 12-o-tetradecanoylphorbol-13-acetate (PMA) and polyinosic acid were added to each well so as to provide final concentrations of 2 μg/ml and […] respectively. The plate was incubated at 37° C. under the atmosphere of 95% […] and 5% carbon dioxide for 24 hours. After incubation, a supernatant was recovered from each well by means of Pipetteman available from Gilson Co., Ltd. Then, an amount of the IL-1β in the supernatant was assayed by means of the enzyme immunoassay kit available from Cayman Chemical Co., Ltd. […]

As for `Nc1ccccc1SSc1ccccc1Nc1ncccn1` [Compound 1], the IC50 in test [1] came out at 19 µM; in test [2] it was 3.8 µM. Consider `c1cnc(Nc2ccccc2SSc2ccccc2Nc2ncccn2)nc1` [Compound 2], for which the IC50 in test [2] is 34 µM. Take `O=[N+]([O-])c1ccc(SSc2ccccc2-c2nc3ccccc3[nH]2)c([N+](=O)[O-])c1` [Compound 3]: in test [2], the IC50 worked out at 34 µM.

The record behind these values is patent US5698564A, “Diphenyl disulfide compounds” (Nisshin Flour Milling Co., Ltd., priority 1994, dated 1997).
